Where two headings read alike, the source gives them in different places.
Tests used:
[1] = biological target: T1, α-Glucosidase from recombinant yeast (Saccharomyces cerevisiae, UniProt P53341); experiment: biochemical; type: biochemical; conditions: for Inhibitory score: 1/IC50, Table 4, S4
T1 construct: purchased Shanghai yuanye Bio-Technology Co. Ltd; host or cells: recombinant yeast
Experimental: Fatty acids and their derivates were diluted in 0.1 M, pH = 6.9 phosphate buffer with 0.5% (v/v) DMSO as cosolvent, to prepare […] sample solutions. 50 μL sample solution and 100 μL 0.5 U α-glucosidase (prepared in the same phosphate buffer) were added into 1.5-mL plastic tubes, incubated at 37 °C, 10 min. Then, 50 μL 5 mM α-PNPG (prepared in the same buffer) was added into the plastic tube, incubated for another 10 min at 37 °C. At the end, 1 M Na2CO3 was added to terminate the reaction.
The Inhibitory score measures the inhibitory intensity of each sample on α-glucosidase, calculated by 1/IC50. Data were subjected to the one-way ANOVA analysis by SPSS 23.0, shown as mean ± SD (n = 3).

α-glucosidase = conditions: result in words; ref Paul et al. ([2010]); cited from earlier work
[2] = 0.1 M phosphate buffer pH 6.9, 0.5% DMSO, 37 °C, α-PNPG, mean ± SD (n = 3), read-out: IC50

T1 sequence (P53341 whole entry): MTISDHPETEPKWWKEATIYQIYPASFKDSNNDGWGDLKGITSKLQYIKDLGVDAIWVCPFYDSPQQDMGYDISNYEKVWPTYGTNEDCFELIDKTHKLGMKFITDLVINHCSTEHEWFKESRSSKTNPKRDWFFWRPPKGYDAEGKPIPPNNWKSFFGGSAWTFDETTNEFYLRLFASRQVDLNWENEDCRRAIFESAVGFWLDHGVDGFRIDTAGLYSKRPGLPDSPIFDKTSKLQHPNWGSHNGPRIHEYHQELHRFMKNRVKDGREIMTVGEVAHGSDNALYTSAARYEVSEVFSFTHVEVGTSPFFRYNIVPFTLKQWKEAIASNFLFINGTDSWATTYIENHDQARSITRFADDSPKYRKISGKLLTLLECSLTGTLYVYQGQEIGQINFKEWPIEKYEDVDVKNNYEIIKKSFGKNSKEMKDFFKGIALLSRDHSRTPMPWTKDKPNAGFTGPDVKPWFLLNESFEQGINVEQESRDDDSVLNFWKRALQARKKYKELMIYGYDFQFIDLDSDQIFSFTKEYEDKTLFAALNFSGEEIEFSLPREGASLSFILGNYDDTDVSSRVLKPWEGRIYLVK

| Structure (SMILES) | IC50 [1, 2] [µM] | Inhibitory score [1] | also measured |
| --- | --- | --- | --- |
| CCCCCCCC/C=C\CCCCCCCC(=O)OCCCCCC [Hexyl, hexyl oleate] | 4.16 ± 0.21 | 0.24 |  |
| CCCCCCCC/C=C\CCCCCCCC(=O)OCCC [Propyl, propyl oleate] | 1.75 ± 0.04 | 0.57 |  |
| CCCCCCCC/C=C\CCCCCCCC(=O)OCCCCCCCC [Octyl, octyl oleate] | 3.25 ± 0.08 | 0.31 |  |
| CCCCCCCCCC(=O)O [C10:0, capric acid] | 114 ± 2.37 |  |  |
| CCCCCCCC/C=C\CCCCCCCC(=O)OCCCCC [Pentyl, amyl oleate] | 3.21 ± 0.17 | 0.31 |  |
| CCCCCCCCC(O)/C=C/CCCCCCC(=O)O (stereo not shown) [10-hydroxy-8 (E)-octadecenoic acid] |  |  | inhibition of α-glucosidase (α-glucosidase): useful inhibitor |
| CCCCC/C=C\C/C=C\CCCCCCCC(=O)O [C18:2, linoleic acid] |  |  | IC50 [1]: 0.6 ± 0.01 µM |
| CCCCCCCC/C=C\CCCCCCCC(=O)O [cis-C18:1, Oleic acid] | 0.81 ± 0.04 |  | Inhibitory score ([1]; listed as OA): 1.23 |
| CCCCCCCCCCCCCCCC(=O)O [C16:0, palmitic acid] | 13.97 ± 0.01 |  |  |
| CCCCCCCCCCCCCC(=O)O [C14:0, myristic acid] | 56.2 ± 2.81 |  |  |
| CCCCCCCCC(O)CCCCCCCCC(=O)O (stereo not shown) [10-HSA, 10-hydroxystearic acid] | 1.71 ± 0.02 | 0.58 |  |
| CCCCCCCC/C=C\CCCCCCCC(=O)OCCCC [Butyl, butyl oleate] | 2.34 ± 0.11 | 0.43 |  |
| CC/C=C\C/C=C\C/C=C\CCCCCCCC(=O)O [C18:3, α-linolenic acid] |  |  | IC50 [1]: 0.54 ± 0.01 µM |
| CCCCCCCCCCCC(=O)O [C12:0, lauric acid] | 135 ± 6.43 |  |  |
| CCCCCCCC/C=C\CCCCCCCC(=O)OC(C)C [Isopropyl, isopropyl oleate] | 0.6 ± 0.01 | 1.67 |  |
| CCCCC/C=C\CC(O)CCCCCCCCC(=O)O (stereo not drawn) [10-HOA, 10-hydroxy-cis-12-octadecenoic acid] |  | 2.58 | IC50 [1]: 0.39 ± 0.01 µM |

Source: publication PMC10992144, “Construction of fatty acid derivatives from rubber seed oil as α-glucosidase inhibitors based on rubber seed oil” (Bioresources and Bioprocessing, 2022)
